Assay results: patent publication US7396554B2, “Antioxidant sesame extract” (Council of Scientific & Industrial Research, priority 2002, dated 2008)

How the values were obtained:
[1] = system: rats; settings: Nobuyuki Ito 1982, cited via U.S. Pat. No. 5,043,100; cited from earlier work
[2] = DPPH radical quenching / free radical scavenging test; assay type: biochemical; settings: Conc. of antioxidant 20 μM
Description: The radical quenching efficiency of the extract was also tested by widely reported standard methods like di-phenyl picryl hydrazyl (DPPH) radical according to the methods of W. Brand Williams, M. E. Cuvelier and C. Berset, Lebesm.-Wiss.

[3] = DSC oxidative stability of soybean oil, isothermal 150° C. under oxygen flow; settings: soybean oil stored one week at 60° C.; antioxidant 200 mg per Kg of oil
Description: DSC experiments: Differential Scanning Calorimeter. The Mettler Toledo instrument used for carrying out the studies, is configured to follow oxidative stability of vegetable oils at a desired higher temperature under oxygen flow. […] With the help of an inbuilt program of the instrument, the induction period in ‘time-units’ could be calculated. This is indicated in the diagram as ‘onset’ time. Longer ‘onset’ time indicates better protection. […] DSC profiles of purified sesame extracts have been included here. In FIG. 6, the oxidative stability of soybean oil stored at 60° C. for 7 days has been depicted. (The storage study continued for one month. The extent of protection as measured in DSC was studied here.). Each experiment such as Control alone, (soybean oil+BHT), (oil+TBHQ), (oil+Sesame extract at 10 ppm, 50 ppm, 200 ppm) etc were carried out separately. For comparison sake, the different profiles have been overlaid in the same figure. In FIG. 6, the concentrations of BHT and TBHQ are 200 mg per Kg. of oil. For comparison, the profile of oil containing sesame extract at 50 ppm is also depicted in the overlaid diagram. […]

[4] = DSC oxidative stability of safflower oil, isothermal 150° C. under oxygen flow; settings: fresh safflower oil; antioxidant 200 mg per Kg of oil
Description: DSC experiments: Differential Scanning Calorimeter. The Mettler Toledo instrument used for carrying out the studies, is configured to follow oxidative stability of vegetable oils at a desired higher temperature under oxygen flow. […] With the help of an inbuilt program of the instrument, the induction period in ‘time-units’ could be calculated. This is indicated in the diagram as ‘onset’ time. Longer ‘onset’ time indicates better protection. […] DSC profiles of purified sesame extracts have been included here. As explained elsewhere, the Figure represents overlaid DSC profiles of safflower oil containing synthetic and sesame antioxidants at few select concentrations. The onset time has been recorded in the printout of the profile. The oxidative stability of vegetable oils containing synthetic antioxidants (BHT and TBHQ at 50-200 ppm) and sesame extract at different levels 3 to 1000 ppm were also tested in the Differential Scanning Calorimeter (Mettler Toledo, model 821) under flow of oxygen (40 ml/min.). The heating regime followed was isothermal at 150° C. and from the curves obtained (FIGS. 6, 7), the ‘onset-time’ of oxidative changes under identical conditions could be found out by making use of an inbuilt program of the instrument, the induction period represented by the onset time, can be correlated with the onset of rancidity.

COc1ccc(O)c(C(C)(C)C)c1 [BHA, Butylated Hydroxy Anisole]
carcinogenicity [1]: carcinogenic in rats

Cc1cc(C(C)(C)C)c(O)c(C(C)(C)C)c1 [BHT, Butylated Hydroxy Toluene]
Free radical Scavenging Effect after 30 min. [2]: 81.61
DSC onset time [3]: 7.30 min
DSC onset time [4]: 7.23 min

CC(C)(C)c1cc(O)ccc1O [TBHQ, tert-Butyl Hydro Quinone]
Free radical Scavenging Effect after 30 min. [2]: 98.88
DSC onset time [3]: 20.48 min
DSC onset time [4]: 10.01 min

O=C(OC[C@H]1O[C@@H](OC(=O)c2cc(O)c(O)c(OC(=O)c3cc(O)c(O)c(O)c3)c2)[C@H](OC(=O)c2cc(O)c(O)c(OC(=O)c3cc(O)c(O)c(O)c3)c2)[C@@H](OC(=O)c2cc(O)c(O)c(OC(=O)c3cc(O)c(O)c(O)c3)c2)[C@@H]1OC(=O)c1cc(O)c(O)c(OC(=O)c2cc(O)c(O)c(O)c2)c1)c1cc(O)c(O)c(OC(=O)c2cc(O)c(O)c(O)c2)c1 [Tannic Acid]
Free radical Scavenging Effect after 30 min. [2]: 98.88

Catechin
Free radical Scavenging Effect after 30 min. [2]: 98.51
